System: E. coli
Experiment: E. coli pneumonia in mice: gentamicin with or without USMB, cfu in lung homogenates
Format: in vivo, C57BL/6 mice
Experimental: To establish whether USMB enhances antibiotic delivery to the injured lung, gentamicin (1.5 mg/kg) was administered to mice by intraperitoneal injection 6 hours after infection with E. coli to determine whether USMB conferred any additional benefit to treatment with antibiotics or microbubbles alone. This relatively low dose of gentamicin was chosen as it is relatively slow and achieves incomplete clearance of lung pathogens and thus allows any benefit of USMB to become apparent. In humans, high doses of gentamicin are known to cause nephro- and ototoxicity, making it contraindicated for human use at high doses.
C57BL/6 mice were infected intratracheally with 1×10^7 colony forming units (cfu) of E. coli and received 1.5 mg/kg of gentamicin by intraperitoneal injection 6 hours later. Thirty minutes later, the mice were then injected intravenously with 1×10^9 microbubbles (Definity™) by tail vein. (Definity™ is an approved microbubble preparation that is used for diagnostic imaging in intensive care unit patients.) This was followed by thoracic ultrasound administration for five minutes. The ultrasound treatment conditions were the same as those used in Example 1. Eighteen hours later, mice were euthanized by cervical dislocation and lungs were homogenized for cfu. Lung homogenates were plated on agar to measure bacterial growth. Each experiment was repeated twice with 3 mice per group. Control mice received microbubbles and antibiotic without ultrasound (MB+ antibiotics) or antibiotics alone (PBS and antibiotics). Other control mice received no antibiotics. […] Data are mean plus SEM (SD if <3 mice) with each dot representing a separate animal. Note the >1 log-fold reduction in cfu in the mice receiving USMB with antibiotics (left-most group) compared to microbubbles/antibiotics alone. An ELISA performed on lung homogenates and plasma measures gentamicin levels.

gentamicin
reduction in cfu in lung homogenates (gentamicin 1.5 mg/kg i.p. plus USMB vs microbubbles/antibiotics alone, 18 hours later): > 1 log-fold
reduction in bacterial growth caused by USMB (gentamicin 1.5 mg/kg i.p. plus USMB, both replicates): 10 fold
bacterial colony forming units (cfu) (gentamicin alone, 1.5 mg/kg i.p.): reduction
benefit over antibiotics alone (microbubbles and antibiotics without ultrasound): no benefit

— patent US20200001120A1, “APPARATUS, METHOD, AND USE FOR ULTRASOUND MEDIATED MICROBUBBLE DELIVERY OF PHARMACEUTICAL COMPOSITIONS” (priority 2017, published 2020)
